# Test results published in patent US20250223260A1, “Substituted Pyrrolidinyl And Piperidinyl Compounds And Related Methods Of Treatment” (Alkermes, Inc., priority 2022, published 2025).
# Target: T1, human orexin-2 receptor (OX2R) (Homo sapiens, UniProt O43614)
# T1 construct: expressed in transfected cells
# T1 sequence (O43614 1-444): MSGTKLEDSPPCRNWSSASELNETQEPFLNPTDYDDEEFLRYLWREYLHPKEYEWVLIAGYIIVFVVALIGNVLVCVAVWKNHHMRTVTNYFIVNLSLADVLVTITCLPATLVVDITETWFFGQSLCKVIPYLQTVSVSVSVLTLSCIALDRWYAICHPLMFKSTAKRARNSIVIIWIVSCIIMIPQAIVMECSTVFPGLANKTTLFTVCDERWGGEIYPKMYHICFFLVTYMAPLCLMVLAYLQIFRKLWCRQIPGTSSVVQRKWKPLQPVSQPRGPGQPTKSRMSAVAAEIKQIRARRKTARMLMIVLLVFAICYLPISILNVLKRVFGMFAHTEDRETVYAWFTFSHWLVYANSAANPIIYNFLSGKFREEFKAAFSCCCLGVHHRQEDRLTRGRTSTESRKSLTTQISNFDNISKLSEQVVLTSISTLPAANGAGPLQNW
# Experiment: Human OX2R IP1 assay
# Format: cell-based
# Settings: T-Rex CHO cells stably overexpressing human OX2R; IP1 accumulation (HTRF); 1 hr at 37 degrees C
# Method: T-Rex CHO cells stably overexpressing the human orexin-2 receptor (OX2R) are induced overnight with 1 μg/mL of doxycycline in a T225 flask. 24 hours post induction, cells are lifted with accutase and plated into a 384-well proxy plate at 30,000 cells/well. Cells are then treated with different test compounds in 1× stimulation buffer containing 10 mM Hepes, 1 mM CaCl2, 0.5 mM MgCl2, 4.2 mM KCl, 146 mM NaCl, 5.5 mM glucose, and 50 mM LiCl, pH 7.4, for 1 hr at 37 degrees C. Following incubation, the reaction is terminated by the addition of detection mix, which is composed of IP1-d2 and anti-IP1-cryptate diluted in lysis buffer as well as 1× stimulation buffer. The plates are allowed to incubate for 1 hour at room temperature and are then read in the EnVision® multimode plate reader, measuring inositol phosphate levels.
# Cisbio IP1 is a cell-based functional assay quantifying the accumulation of inositol monophosphate (IP), a metabolite released as a result of orexin 2 receptor activation through the phospholipase C-Gq signaling pathway. This is a competitive immunoassay in which the IP1 produced by the cells upon receptor activation competes with the IP1 analog coupled to the d2 fluorophore (acceptor) for binding to an anti-IP1 monoclonal antibody labeled with Eu cryptate (donor). The measured HTRF-FRET based signal is inversely proportional to the IP1 concentration produced.
# The EC50 values reported in Table 2 were obtained according to the human OX2R IP1 assay described above. Data are the mean EC50 values ±S.E.M.
row,Compound,EC50 [µM]
1,"C[C@@H](C1COC1)N1CC[C@@H](NS(C)(=O)=O)[C@@H](OCC2CCC(c3ccccc3)CC2)C1 (single isomer, unassigned) [Compound 62]",> 10
2,"Cn1ccc(N2CC[C@H](NS(C)(=O)=O)[C@H](OC[C@H]3CC[C@@H](c4ccccc4)CC3)C2)n1 (single isomer, unassigned) [Compound 47]",0.1 to 10
3,"CS(=O)(=O)N[C@@H]1CCN(C(=O)C2(O)CCC2)C[C@@H]1OC[C@H]1CC[C@@H](c2ccccc2)CC1 (single isomer, unassigned) [Compound 43]",< 0.1
4,"CC1(C(=O)N2CC[C@H](NS(C)(=O)=O)[C@H](OCC3CCC(c4ccccc4)CC3)C2)COC1 (single isomer, unassigned) [Compound 45]",0.1 to 10
5,"CS(=O)(=O)N[C@@H]1CCN(C(=O)C2(F)CC2)C[C@@H]1OC[C@H]1CC[C@@H](c2ccccc2)CC1 (single isomer, unassigned) [Compound 67]",< 0.1
6,"C[C@@H](C1COC1)N1CC[C@H](NS(C)(=O)=O)[C@H](OCC2CCC(c3ccccc3)CC2)C1 (single isomer, unassigned) [Compound 61]",> 10
7,"CS(=O)(=O)N[C@@H]1CCN(CC2COC2)C[C@@H]1OC[C@H]1CC[C@@H](c2ccccc2)CC1 (single isomer, unassigned) [Compound 58]",> 10
8,"CS(=O)(=O)N[C@@H]1CCN(C(=O)C2CC2)C[C@@H]1OC[C@H]1CC[C@@H](c2ccccc2)CC1 (single isomer, unassigned) [Compound 37, N-[cis-1-cyclopropanecarbonyl-3-[(cis-4-phenylcyclohexyl)methoxy]piperidin-4-yl]methanesulfonamide]",0.1 to 10
9,"Cn1ccc(N2CC[C@@H](NS(C)(=O)=O)[C@@H](OC[C@H]3CC[C@@H](c4ccccc4)CC3)C2)n1 (single isomer, unassigned) [Compound 48]",> 10
10,"CS(=O)(=O)N[C@H]1CCN(CC2(F)CCC2)C[C@H]1OCC1CCC(c2ccccc2)CC1 (single isomer, unassigned) [Compound 69]",0.1 to 10
11,"CC1(C(=O)N2CC[C@@H](NS(C)(=O)=O)[C@@H](OCC3CCC(c4ccccc4)CC3)C2)COC1 (single isomer, unassigned) [Compound 46]",> 10
12,"CS(=O)(=O)N[C@@H]1CCN(CC2(F)CCC2)C[C@@H]1OCC1CCC(c2ccccc2)CC1 (single isomer, unassigned) [Compound 70]",> 10
13,"CS(=O)(=O)N[C@H]1CCN(CC2COC2)C[C@H]1OC[C@H]1CC[C@@H](c2ccccc2)CC1 (single isomer, unassigned) [Compound 57]",> 10
14,"CS(=O)(=O)N[C@H]1CCN(c2ncco2)C[C@H]1OC[C@H]1CC[C@@H](c2ccccc2)CC1 (single isomer, unassigned) [Compound 39, N-(cis-1-(oxazol-2-yl)-3-((cis-4-phenylcyclohexyl)methoxy)piperidin-4-yl)methanesulfonamide]",0.1 to 10
15,"C[C@H](C1COC1)N1CC[C@@H](NS(C)(=O)=O)[C@@H](OCC2CCC(c3ccccc3)CC2)C1 (single isomer, unassigned) [Compound 64]",> 10
16,"Cn1ccnc1N1CC[C@@H](NS(C)(=O)=O)[C@@H](OC[C@H]2CC[C@@H](c3ccccc3)CC2)C1 (single isomer, unassigned) [Compound 54]",0.1 to 10
17,"CS(=O)(=O)N[C@H]1CCN(c2cccnn2)C[C@H]1OC[C@H]1CC[C@@H](c2ccccc2)CC1 (single isomer, unassigned) [Compound 55]",< 0.1

row,Compound,EC50 [µM]
1,"Cn1cnc(N2CC[C@@H](NS(C)(=O)=O)[C@@H](OC[C@H]3CC[C@@H](c4ccccc4)CC3)C2)c1 (single isomer, unassigned) [Compound 60]",> 10
2,"COC(=O)N1CC[C@H](NS(C)(=O)=O)[C@H](OC[C@H]2CC[C@@H](c3ccccc3)CC2)C1 (single isomer, unassigned) [Compound 40]",0.1 to 10
3,COC1(C(=O)N2CC[C@H](NS(C)(=O)=O)[C@H](OC[C@H]3CC[C@@H](c4ccccc4)CC3)C2)CCC1 [Compound 42],0.1 to 10
4,"C[C@H](C1COC1)N1CC[C@H](NS(C)(=O)=O)[C@H](OCC2CCC(c3ccccc3)CC2)C1 (single isomer, unassigned) [Compound 63]",> 10
5,"CS(=O)(=O)N[C@H]1CCN(C2COC2)C[C@H]1OC[C@H]1CC[C@@H](c2ccccc2)CC1 (single isomer, unassigned) [Compound 51]",> 10
6,"CS(=O)(=O)N[C@@H]1CCN(C(=O)C2(F)CCC2)C[C@@H]1OCC1CCC(c2ccccc2)CC1 (single isomer, unassigned) [Compound 50]",0.1 to 10
7,"CS(=O)(=O)N[C@@H]1CCN(C(=O)C2CCC2)C[C@@H]1OCC1CCC(c2ccccc2)CC1 (single isomer, unassigned) [Compound 66]",0.1 to 10
8,"Cn1cnc(N2CC[C@H](NS(C)(=O)=O)[C@H](OCC3CCC(c4ccccc4)CC3)C2)c1 (single isomer, unassigned) [Compound 59]",0.1 to 10
9,"CS(=O)(=O)N[C@@H]1CCN(C(=O)C2(O)CCC2)C[C@@H]1OCC1CCC(c2ccccc2)CC1 (single isomer, unassigned) [Compound 44]",> 10
10,"CS(=O)(=O)N[C@@H]1CCN(C(=O)C2(F)CC2)C[C@@H]1OCC1CCC(c2ccccc2)CC1 (single isomer, unassigned) [Compound 68]",0.1 to 10
11,"Cn1ccnc1N1CC[C@H](NS(C)(=O)=O)[C@H](OCC2CCC(c3ccccc3)CC2)C1 (single isomer, unassigned) [Compound 53]",> 10
12,"CC(C)(O)C(=O)N1CC[C@@H](NS(C)(=O)=O)[C@@H](OC[C@H]2CC[C@@H](c3ccccc3)CC2)C1 (single isomer, unassigned) [Compound 38]",0.1 to 10
13,"CS(=O)(=O)N[C@@H]1CCN(C2COC2)C[C@@H]1OC[C@H]1CC[C@@H](c2ccccc2)CC1 (single isomer, unassigned) [Compound 52]",> 10
14,"CS(=O)(=O)N[C@H]1CCN(C(=O)C2CCC2)C[C@H]1OCC1CCC(c2ccccc2)CC1 (single isomer, unassigned) [Compound 65]",< 0.1
15,"CS(=O)(=O)N[C@H]1CCN(C(=O)C2(F)CCC2)C[C@H]1OCC1CCC(c2ccccc2)CC1 (single isomer, unassigned) [Compound 49]",< 0.1
16,"COC(=O)N1CC[C@@H](NS(C)(=O)=O)[C@@H](OC[C@H]2CC[C@@H](c3ccccc3)CC2)C1 (single isomer, unassigned) [Compound 41]",> 10
17,"CS(=O)(=O)N[C@@H]1CCN(c2cccnn2)C[C@@H]1OC[C@H]1CC[C@@H](c2ccccc2)CC1 (single isomer, unassigned) [Compound 56]",0.1 to 10
